Source: patent publication US20220298143A1, “Pyrazole Derivatives for FGFR Inhibitor and Preparation Method Thereof” (Etern Biopharma (Shanghai) Co., Ltd., priority 2019, published 2022)
Read-outs that look alike come from different tables or passages of the source.

Tests used:
FGFR1 = target: T1, FGFR1 (Homo sapiens, UniProt P11362); test: Enzymatic activity test of FGFR inhibitor, Caliper model; type: biochemical
T1 construct: purchased Cama (sic; Carna) 08-133
Description: (§1) Enzymatic Activity Test of FGFR Inhibitor-Caliper Model
(§2) The specific operation steps were as follows:
(§3) The compound was first serially diluted in 5% DMSO solution, and 5 μL of the compound solution was added to a 384-well plate. The maximum final concentration of the compound is 1 μM, being diluted three times with 10 concentrations.
(§4) 10 μL of kinase solution was added to the 384-well plate and incubated at room temperature for 10 minutes;
(§5) 10 μL of P22 peptide and ATP solution were added to the 384-well plate, and 25 μL of reaction stop buffer was added after a specific time at 28° C.;
(§6) The data was collected in Caliper read and the inhibition rate was calculated according to inhibition rate=(max−conversion)/(max−min)*100, where max is DMSO control, conversion is the reading of the compound treated group, and min is the maximum inhibition control. IC50 value of the compound was calculated with XLfit excel add-in version 5.4.0.8 software.

FGFR2 = FGFR2 (Homo sapiens, UniProt P21802); test: as above; type: biochemical; conditions: kinase pre-incubation 10 minutes
FGFR2, sequence (P21802 22-821): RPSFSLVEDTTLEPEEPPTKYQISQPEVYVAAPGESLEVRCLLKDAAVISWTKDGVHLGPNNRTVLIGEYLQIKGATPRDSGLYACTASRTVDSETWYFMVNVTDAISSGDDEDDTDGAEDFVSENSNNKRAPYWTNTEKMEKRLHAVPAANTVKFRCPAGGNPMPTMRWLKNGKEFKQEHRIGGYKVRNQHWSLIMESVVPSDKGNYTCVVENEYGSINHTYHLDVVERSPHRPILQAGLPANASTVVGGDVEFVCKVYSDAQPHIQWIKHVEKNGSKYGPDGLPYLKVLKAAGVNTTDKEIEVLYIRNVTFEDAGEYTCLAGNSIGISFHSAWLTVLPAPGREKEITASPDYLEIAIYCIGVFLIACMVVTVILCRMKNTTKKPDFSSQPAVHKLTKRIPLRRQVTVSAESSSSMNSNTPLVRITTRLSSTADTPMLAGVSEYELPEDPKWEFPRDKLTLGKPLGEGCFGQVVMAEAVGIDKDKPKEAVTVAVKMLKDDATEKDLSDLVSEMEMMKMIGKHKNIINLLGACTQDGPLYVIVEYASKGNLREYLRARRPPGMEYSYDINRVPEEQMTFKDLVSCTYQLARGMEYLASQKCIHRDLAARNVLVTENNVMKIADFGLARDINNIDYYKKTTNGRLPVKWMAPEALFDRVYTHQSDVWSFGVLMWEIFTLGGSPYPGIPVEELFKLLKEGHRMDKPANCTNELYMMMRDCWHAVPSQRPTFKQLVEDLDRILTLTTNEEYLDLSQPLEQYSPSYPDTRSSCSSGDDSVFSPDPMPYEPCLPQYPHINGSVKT

FGFR3 = FGFR3 (Homo sapiens, UniProt P22607); test: as above; type: biochemical; conditions: kinase pre-incubation 10 minutes
FGFR3, sequence (P22607 23-806): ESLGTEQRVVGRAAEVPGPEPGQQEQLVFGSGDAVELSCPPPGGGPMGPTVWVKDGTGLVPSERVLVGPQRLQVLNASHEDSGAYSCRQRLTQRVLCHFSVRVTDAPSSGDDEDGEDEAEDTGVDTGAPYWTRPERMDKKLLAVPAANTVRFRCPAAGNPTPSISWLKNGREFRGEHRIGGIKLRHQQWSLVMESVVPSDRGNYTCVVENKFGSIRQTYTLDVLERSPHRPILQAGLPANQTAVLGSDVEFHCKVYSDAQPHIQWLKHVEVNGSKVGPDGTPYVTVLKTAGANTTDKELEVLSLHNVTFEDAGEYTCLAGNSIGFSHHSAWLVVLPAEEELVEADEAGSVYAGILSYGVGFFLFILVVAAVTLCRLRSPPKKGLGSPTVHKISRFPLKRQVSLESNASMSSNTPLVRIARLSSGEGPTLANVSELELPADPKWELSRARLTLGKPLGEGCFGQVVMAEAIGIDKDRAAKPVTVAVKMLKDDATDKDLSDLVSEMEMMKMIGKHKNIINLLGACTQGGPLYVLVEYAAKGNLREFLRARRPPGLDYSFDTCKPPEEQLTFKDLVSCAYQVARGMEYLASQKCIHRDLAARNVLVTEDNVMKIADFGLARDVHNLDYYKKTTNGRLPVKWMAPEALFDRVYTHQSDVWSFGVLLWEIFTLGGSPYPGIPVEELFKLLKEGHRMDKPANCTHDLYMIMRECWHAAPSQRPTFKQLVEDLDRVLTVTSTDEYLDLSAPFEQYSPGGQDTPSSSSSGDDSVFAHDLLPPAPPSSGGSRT

FGFR4 = target: T2, FGFR4 (Homo sapiens, UniProt P22455); test: as above; type: biochemical
T2 construct: purchased Invitrogen PR4380A
T2 sequence (P22455 22-802): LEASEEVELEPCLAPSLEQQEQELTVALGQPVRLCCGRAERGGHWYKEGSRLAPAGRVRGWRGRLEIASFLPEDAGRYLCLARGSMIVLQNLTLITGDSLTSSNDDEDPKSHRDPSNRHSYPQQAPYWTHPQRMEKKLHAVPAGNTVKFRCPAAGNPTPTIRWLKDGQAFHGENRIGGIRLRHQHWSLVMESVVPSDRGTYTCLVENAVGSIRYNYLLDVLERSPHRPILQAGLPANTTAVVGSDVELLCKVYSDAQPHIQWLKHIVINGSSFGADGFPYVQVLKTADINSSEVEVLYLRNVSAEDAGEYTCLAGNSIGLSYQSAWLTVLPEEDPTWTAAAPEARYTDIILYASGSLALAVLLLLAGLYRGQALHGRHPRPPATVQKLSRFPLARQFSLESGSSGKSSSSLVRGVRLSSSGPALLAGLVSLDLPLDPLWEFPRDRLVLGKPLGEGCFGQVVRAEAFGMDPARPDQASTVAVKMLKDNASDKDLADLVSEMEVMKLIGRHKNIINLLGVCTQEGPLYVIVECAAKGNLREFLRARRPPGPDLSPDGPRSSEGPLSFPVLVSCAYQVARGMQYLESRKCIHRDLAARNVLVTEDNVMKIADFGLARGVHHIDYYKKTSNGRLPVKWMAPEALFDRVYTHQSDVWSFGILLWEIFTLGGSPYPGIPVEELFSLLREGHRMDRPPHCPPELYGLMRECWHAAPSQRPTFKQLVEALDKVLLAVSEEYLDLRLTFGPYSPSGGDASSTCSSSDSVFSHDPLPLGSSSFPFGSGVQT
Description: as §1, §2, §3, §4, §5, §6

Hep3B cells = test: Human liver cancer cell Hep3B survival test (CellTiter-Glo); type: cell-based; conditions: 72 hours compound treatment
Description: Human Liver Cancer Cell Hep3B Survival Test
The human liver cancer Hep3B cell line was from ATCC. The cells were cultured in DMEM liquid medium, and fetal bovine serum (10% FBS) and penicillin-streptomycin (100,000 U/L) were added. The cells were kept at 37° C., 95% humidity and 5% carbon dioxide in the culture medium. During the experiment, Hep3B cells were seeded in a 96-well plate at a density of 3000 cells per well. The volume of the cell suspension was 100 μL per well, and the cells were cultured overnight to attach the cells. The next day, each compound was diluted with DMSO in a three-fold gradient, and 1 μL of the solution of the compound in DMSO was added to the cell culture medium. At the same time, 1 μL of DMSO was used as a control. Three parallel sub-wells were set for each concentration of each compound. Then the cells were placed in a 37° C. incubator. After 72 hours of continuous compound treatment, 50 μL CellTiter-Glo (Promega, Madison Wis.) was added to the cell culture medium. The relative luminescence unit (RLU) of each well was determined and the cell survival rate and compound activity (IC50) were calculated.

[1] = Compound pharmacokinetic experiment, single intragastric administration; type: in vivo; conditions: mouse, plasma, male mice, oral dosage 15 mg/Kg; for Cmax: read-out: Peak plasma concentration Cmax; for AUC: read-out: Plasma exposure AUC
Description: Compound Pharmacokinetic Experiment
The pharmacokinetics of the compounds of the present disclosure was determined. This application used the following methods to determine the pharmacokinetic parameters of the compounds.
For the healthy male adult mice used in the study, each group of animals was given a single intragastric administration of 5-100 mg/Kg. Fasting was from 10 hours before administration to 4 hours after administration. Blood was collected at different time points after administration, and the plasma content of the compound was determined (LC-MS/MS). The plasma concentration-time relationship was analyzed with professional software (winnonlin) to calculate the pharmacokinetic parameters of the compound.

[2] = Caliper, kinase pre-incubation 10 minutes, read-out: FGFR1
[3] = Caliper, kinase pre-incubation 10 minutes, read-out: FGFR4

T1 sequence (P11362 22-822): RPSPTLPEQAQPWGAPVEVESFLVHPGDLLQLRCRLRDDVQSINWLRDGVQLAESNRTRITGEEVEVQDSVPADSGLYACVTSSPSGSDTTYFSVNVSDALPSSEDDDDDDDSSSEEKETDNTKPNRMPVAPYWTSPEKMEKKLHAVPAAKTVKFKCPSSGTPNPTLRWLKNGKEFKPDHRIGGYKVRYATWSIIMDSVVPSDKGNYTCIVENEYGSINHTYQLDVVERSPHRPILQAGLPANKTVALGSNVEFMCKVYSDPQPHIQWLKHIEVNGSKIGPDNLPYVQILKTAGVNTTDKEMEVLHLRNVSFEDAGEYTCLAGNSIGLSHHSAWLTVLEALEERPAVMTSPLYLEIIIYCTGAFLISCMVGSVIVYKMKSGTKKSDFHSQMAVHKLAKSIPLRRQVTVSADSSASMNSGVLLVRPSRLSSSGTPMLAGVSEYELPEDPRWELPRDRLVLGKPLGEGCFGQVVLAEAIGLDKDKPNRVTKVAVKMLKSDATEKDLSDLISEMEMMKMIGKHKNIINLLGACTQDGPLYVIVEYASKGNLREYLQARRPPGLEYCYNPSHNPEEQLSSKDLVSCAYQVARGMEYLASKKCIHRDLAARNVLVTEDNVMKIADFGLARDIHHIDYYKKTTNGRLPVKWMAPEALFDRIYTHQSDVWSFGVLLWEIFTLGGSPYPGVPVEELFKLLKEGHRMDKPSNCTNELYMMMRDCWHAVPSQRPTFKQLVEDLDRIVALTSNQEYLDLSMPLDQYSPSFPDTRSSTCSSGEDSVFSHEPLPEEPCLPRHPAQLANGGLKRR

IC50 (FGFR1; [2]) [nM]	IC50 (FGFR2) [nM]	IC50 (FGFR3) [nM]	IC50 (FGFR4; [3]) [nM]	Cmax [1] [nM]	AUC [1] [µM·h]	Structure (SMILES)	IC50 (Hep3B cells) [nM]	IC50 (FGFR1) [nM]	IC50 (FGFR4) [nM]
3.4	4.9	3.1	3.8			C=CC(=O)Nc1cc(N(C)CCC(F)(F)F)ccc1C(=O)Nc1cc(CCc2cc(OC)cc(OC)c2)n[nH]1 [Compound 13, 2-acrylamido-N-(3-(3,5-dimethoxyphenethyl)-1H-pyrazol-5-yl)-4-(methyl(3,3,3-trifluoropropyl)amino)benzamide]	12		
2.7	2.7	2.4	2.5			C=CC(=O)Nc1cc(OCC(F)(F)F)ccc1C(=O)Nc1cc(CCc2cc(OC)cc(OC)c2)n[nH]1 [Compound 5, 2-acrylamido-N-(3-(3,5-dimethoxyphenethyl)-1H-pyrazol-5-yl)-4-(2,2,2-trifluoroethoxy)benzamide]	9		
2.4	2.3	1.7	2			C=CC(=O)Nc1cc(N2CC(F)(F)C2)ccc1C(=O)Nc1cc(CCc2cc(OC)cc(OC)c2)n[nH]1 [Compound 6, 2-acrylamido-4-(3,3-difluoroazetidin-1-yl)-N-(3-(3,5-dimethoxyphenethyl)-1H-pyrazole-5-yl)benzamide]	3		
3.3	3.7	2.8	3.3	2580	7.52	C=CC(=O)Nc1cc(N2CCN(CC(F)(F)F)CC2)ccc1C(=O)Nc1cc(CCc2cc(OC)cc(OC)c2)n[nH]1 [Compound 2, 2-acrylamide-N-(3-(3,5-dimethoxyphenethyl)-1H-pyrazol-5-yl)-4-(4-(2,2,2-trifluoroethyl)piperazin-1-yl) benzamide]	0.8		
3.1	4.4	4.4	3.6			C=CC(=O)Nc1cc(OCCC(F)(F)F)ccc1C(=O)Nc1cc(CCc2cc(OC)cc(OC)c2)n[nH]1 [Compound 9, 2-acrylamido-N-(3-(3,5-dimethoxyphenethyl)-1H-pyrazol-5-yl)-4-(3,3,3-trifluoropropoxy)benzamide]	2		
2.7	4.1	3	3.9	663	1.42	C=CC(=O)Nc1cc(N2CCN(CCC(F)(F)F)C(C)C2)ccc1C(=O)Nc1cc(CCc2cc(OC)cc(OC)c2)n[nH]1 (stereo not shown) [Compound 12, 2-acrylamido-N-(3-(3,5-dimethoxyphenethyl)-1H-pyrazol-5-yl)-4-(3-methyl-4-(3,3,3-trifluoropropyl)piperazin-1-yl)benzamide]	0.5		

Continued, compound first:

Structure (SMILES)	IC50 (FGFR1; [2]) [nM]	IC50 (FGFR2) [nM]	IC50 (FGFR3) [nM]	IC50 (FGFR4; [3]) [nM]	Cmax [1] [nM]	AUC [1] [µM·h]	IC50 (Hep3B cells) [nM]	IC50 (FGFR1) [nM]	IC50 (FGFR4) [nM]
C=CC(=O)Nc1cc(N2CCN(CCC(F)(F)F)CC2)c(OC)cc1C(=O)Nc1cc(CCc2cc(OC)cc(OC)c2)n[nH]1 [Compound 10, 2-acrylamido-N-(3-(3,5-dimethoxyphenethyl)-1H-pyrazol-5-yl)-5-methoxy-4-(4-(3,3,3-trifluoropropyl)piperazin-1-yl)benzamide]	5.7	6.1	7.4	4.4	1250	2.41	3		
C=CC(=O)Nc1cc(N2CCC(F)(F)CC2)ccc1C(=O)Nc1cc(CCc2cc(OC)cc(OC)c2)n[nH]1 [Compound 7, 2-acrylamido-4-(4,4-difluoropiperidin-1-yl)-N-(3-(3,5-dimethoxyphenethyl)-1H-pyrazol-5-yl)benzamide]	2.1	3.4	2.3	3.2			6		
C=CC(=O)Nc1cc(N2CCC(F)(F)C2)ccc1C(=O)Nc1cc(CCc2cc(OC)cc(OC)c2)n[nH]1 [Compound 8, 2-acrylamido-4-(3,3-difluoropyrrolidin-1-yl)-N-(3-(3,5-dimethoxyphenethyl)-1H-pyrazol-5-yl)benzamide]	2.7	2.8	2.3	2.7			8		
C=CC(=O)Nc1cc(N2CCN(CC(F)(F)C(F)(F)F)CC2)ccc1C(=O)Nc1cc(CCc2cc(OC)cc(OC)c2)n[nH]1 [Compound 14, 2-acrylamido-N-(3-(3,5-dimethoxyphenethyl)-1H-pyrazol-5-yl)-4-(4-(2,2,3,3,3-pentafluoropropyl)piperazin-1-yl)benzamide]	6.1	5.9	5.8	5.9	344	1.15	7		
C=CC(=O)Nc1cc(N2CCN(CCC(F)(F)F)CC2)cc(F)c1C(=O)Nc1cc(CCc2cc(OC)cc(OC)c2)n[nH]1 [Compound 16, 2-acrylamido-N-(3-(3,5-dimethoxyphenethyl)-1H-pyrazol-5-yl)-6-fluoro-4-(4-(3,3,3-trifluoropropyl)piperazin-1-yl)benzamide]							0.3		
C=CC(=O)Nc1cc(N2CCN(CCC(F)(F)F)CC2)cnc1C(=O)Nc1cc(CCc2cc(OC)cc(OC)c2)n[nH]1 [Compound 15, 3-acrylamido-N-(3-(3,5-dimethoxyphenethyl)-1H-pyrazol-5-yl)-5-(4-(3,3,3-trifluoropropyl)piperazin-1-yl)pyridinecarboxamide]	4.8	4.5	3.9	4.4			12		
COc1cc(CCc2cc(NC(=O)c3ccc(N4C[C@@H](C)N[C@@H](C)C4)cc3)n[nH]2)cc(OC)c1 [AZD4547, reference compound]							263		
C=CC(=O)Nc1ccccc1C(=O)Nc1cc(CCc2cc(OC)cc(OC)c2)[nH]n1 [Control a, 2-acrylamido-N-(3-(3,5-dimethoxyphenethyl)-1H-pyrazol-5-yl)benzamide, reference compound]	4.5	2.2	1.7		377	0.404	5		
C=CC(=O)Nc1cc(N2CCN(CC(F)F)CC2)ccc1C(=O)Nc1cc(CCc2cc(OC)cc(OC)c2)n[nH]1 [Compound 3, 2-acrylamide-4-(4-(2,2-difluoroethyl)piperazin-1-yl)-N-(3-(3,5-dimethoxyphenethyl)-1H-pyrazol-5-yl)benzamide]		5.3	4.6				3	3.6	5.7
